Results taken from the supplement of paper PMC10627819.

How the values were obtained:
Assay in all cases: fitness (endpoint OD595 vs no drug) (fraction); higher = more growth
S. aureus DSM 20231 = tested on: S. aureus DSM 20231
Outline: (§1)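 Each well of a 384-well plate received 30 µl of culture at OD595 0.01, or 55 µl for S. pneumoniae. TSB, LB Lennox or CY served as media at 37 °C. OD595 was taken every 30 min for 14 h and corrected by subtracting the first reading. Fitness is the optical density at stationary-phase entry divided by the robust mean of no-drug controls, capped at 1.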

S. aureus Newman = tested on: S. aureus Newman
Outline: as §1

S. pneumoniae D39V = tested on: S. pneumoniae D39V
Outline: as §1

CO[C@@]12[C@H](COC(N)=O)C3=C(C(=O)C(C)=C(N)C3=O)N1C[C@@H]1N[C@@H]12 [Mitomycin C] + CCCCCCCCCC(=O)N[C@@H]1[C@H]([C@@H]([C@H](O[C@H]1OC2=C3C=C4C=C2OC5=C(C=C(C=C5)[C@H]([C@H]6C(=O)N[C@@H](C7=C(C(=CC(=C7)O)OC8[C@H]([C@H]([C@@H]([C@H](O8)CO)O)O)O)C9=C(C=CC(=C9)[C@H](C(=O)N6)NC(=O)[C@@H]4NC(=O)[C@@H]1C2=CC(=CC(=C2)OC2=C(C=CC(=C2)[C@H](C(=O)N[C@H](CC2=CC(=C(O3)C=C2)Cl)C(=O)N1)N)O)O)O)C(=O)O)O[C@H]1[C@@H]([C@H]([C@@H]([C@H](O1)CO)O)O)NC(=O)C)Cl)CO)O)O [Teicoplanin]
fitness, main component drawn
Details	first compound 0.0156 µg/mL	first compound 0.0312 µg/mL	first compound 0.0625 µg/mL
S. aureus DSM 20231, partner 0.1562 µg/mL	0.813	0.757	0.513
S. aureus DSM 20231, partner 0.3125 µg/mL	0.855	0.81	0.418
S. aureus DSM 20231, partner 0.625 µg/mL	0.902	0.814	0.255
S. aureus Newman, partner 0.1562 µg/mL	0.741	0.655	0.429
S. aureus Newman, partner 0.3125 µg/mL	0.753	0.582	0.296
S. aureus Newman, partner 0.625 µg/mL	0.568	0.417	0.138

fitness, S. aureus Newman, one replicate, main component drawn
Details	first compound 0.0156 µg/mL	first compound 0.0312 µg/mL	first compound 0.0625 µg/mL
partner 0.62 µg/mL	0.603	0.482	0.141
partner 1.24 µg/mL	0.482	0.322	0.02
partner 2.48 µg/mL	0.0779	0.119	0.0423

CO[C@@]12[C@H](COC(N)=O)C3=C(C(=O)C(C)=C(N)C3=O)N1C[C@@H]1N[C@@H]12 [Mitomycin C] + CCN(CC)CCOC(=O)c1ccc(N)cc1 [Procaine]
fitness
Details	first compound 0.001075 µg/mL	first compound 0.00215 µg/mL	first compound 0.0043 µg/mL	first compound 0.0156 µg/mL	first compound 0.0312 µg/mL	first compound 0.0625 µg/mL
S. aureus DSM 20231, partner 85.5 µg/mL	–	–	–	0.724	0.668	0.533
S. aureus DSM 20231, partner 171 µg/mL	–	–	–	0.796	0.753	0.572
S. aureus DSM 20231, partner 342 µg/mL	–	–	–	0.754	0.743	0.576
S. aureus Newman, partner 85.5 µg/mL	–	–	–	0.768	0.74	0.595
S. aureus Newman, partner 171 µg/mL	–	–	–	0.765	0.695	0.582
S. aureus Newman, partner 342 µg/mL	–	–	–	0.772	0.686	0.565
S. pneumoniae D39V, partner 85.5 µg/mL	0.966	0.935	0.844	–	–	–
S. pneumoniae D39V, partner 171 µg/mL	0.929	0.939	0.814	–	–	–
S. pneumoniae D39V, partner 342 µg/mL	0.937	0.951	0.826	–	–	–

fitness, S. pneumoniae D39V, one replicate
Details	first compound 0.002 µg/mL	first compound 0.004 µg/mL	first compound 0.008 µg/mL
partner 85.5 µg/mL	0.923	0.885	0.633
partner 171 µg/mL	0.885	0.847	0.641
partner 342 µg/mL	0.818	0.812	0.645

CO[C@@]12[C@H](COC(N)=O)C3=C(C(=O)C(C)=C(N)C3=O)N1C[C@@H]1N[C@@H]12 [Mitomycin C] + CN1C2=CC=CC=C2N=C3C1=CC=CC3=O [Pyocyanin]
fitness
Details	first compound 0.001075 µg/mL	first compound 0.00215 µg/mL	first compound 0.0043 µg/mL	first compound 0.0156 µg/mL	first compound 0.0312 µg/mL	first compound 0.0625 µg/mL
S. aureus DSM 20231, partner 1.25 µg/mL	–	–	–	0.704	0.73	0.573
S. aureus DSM 20231, partner 2.5 µg/mL	–	–	–	0.668	0.691	0.555
S. aureus DSM 20231, partner 5 µg/mL	–	–	–	0.547	0.543	0.414
S. aureus Newman, partner 1.25 µg/mL	–	–	–	0.648	0.614	0.49
S. aureus Newman, partner 2.5 µg/mL	–	–	–	0.558	0.58	0.406
S. aureus Newman, partner 5 µg/mL	–	–	–	0.265	0.239	0.0918
S. pneumoniae D39V, partner 0.325 µg/mL	0.964	0.984	0.847	–	–	–
S. pneumoniae D39V, partner 0.65 µg/mL	0.964	0.975	0.844	–	–	–
S. pneumoniae D39V, partner 1.3 µg/mL	0.726	0.721	0.621	–	–	–

fitness, S. pneumoniae D39V, one replicate
Details	first compound 0.002 µg/mL	first compound 0.004 µg/mL	first compound 0.008 µg/mL
partner 0.325 µg/mL	0.853	0.77	0.642
partner 0.65 µg/mL	0.835	0.802	0.744

CO[C@@]12[C@H](COC(N)=O)C3=C(C(=O)C(C)=C(N)C3=O)N1C[C@@H]1N[C@@H]12 [Mitomycin C] + CN(C)c1cc(NC(=O)CNC(C)(C)C)c(O)c2c1C[C@H]1C[C@H]3[C@H](N(C)C)C(O)=C(C(N)=O)C(=O)[C@@]3(O)C(O)=C1C2=O [Tigecycline]
fitness
Details	first compound 0.001075 µg/mL	first compound 0.002 µg/mL	first compound 0.00215 µg/mL	first compound 0.004 µg/mL	first compound 0.0043 µg/mL	first compound 0.008 µg/mL	first compound 0.0156 µg/mL	first compound 0.0312 µg/mL	first compound 0.0625 µg/mL
S. aureus Newman, partner 0.039 µg/mL	–	–	–	–	–	–	0.7	0.661	0.551
S. aureus Newman, partner 0.078 µg/mL	–	–	–	–	–	–	0.725	0.655	0.558
S. aureus Newman, partner 0.156 µg/mL	–	–	–	–	–	–	0.746	0.679	0.505
S. pneumoniae D39V, partner 0.65 µg/mL	0.89	0.878	0.848	0.804	0.819	0.688	–	–	–
S. pneumoniae D39V, partner 1.3 µg/mL	0.877	0.888	0.859	0.764	0.822	0.625	–	–	–
S. pneumoniae D39V, partner 2.6 µg/mL	0.893	0.816	0.844	0.806	0.783	0.627	–	–	–

CO[C@@]12[C@H](COC(N)=O)C3=C(C(=O)C(C)=C(N)C3=O)N1C[C@@H]1N[C@@H]12 [Mitomycin C] + CN[C@@H]1[C@H](O[C@H]2[C@H](O[C@H]3[C@H](O)[C@@H](O)[C@H](N=C(N)N)[C@@H](O)[C@@H]3N=C(N)N)O[C@@H](C)[C@]2(O)C=O)O[C@@H](CO)[C@H](O)[C@H]1O [Streptomycin]
fitness
Details	partner 1 µg/mL	partner 2 µg/mL	partner 4 µg/mL	partner 8 µg/mL
S. aureus Newman, first compound 0.0156 µg/mL	0.727	0.683	–	–
S. aureus Newman, first compound 0.0312 µg/mL	0.666	0.677	0.523	–
S. aureus Newman, first compound 0.0625 µg/mL	0.473	0.402	0.272	–
S. pneumoniae D39V, first compound 0.001075 µg/mL	–	0.883	0.913	0.939
S. pneumoniae D39V, first compound 0.002 µg/mL	–	–	0.857	0.802
S. pneumoniae D39V, first compound 0.00215 µg/mL	–	0.838	0.827	0.834
S. pneumoniae D39V, first compound 0.004 µg/mL	–	–	0.712	0.668
S. pneumoniae D39V, first compound 0.0043 µg/mL	–	0.701	0.741	0.717
S. pneumoniae D39V, first compound 0.008 µg/mL	–	–	0.54	0.56

fitness, S. pneumoniae D39V, one replicate
Details	first compound 0.002 µg/mL	first compound 0.004 µg/mL	first compound 0.008 µg/mL
partner 2 µg/mL	0.857	0.749	0.666
partner 16 µg/mL	0.711	0.544	0.304

CO[C@@]12[C@H](COC(N)=O)C3=C(C(=O)C(C)=C(N)C3=O)N1C[C@@H]1N[C@@H]12 [Mitomycin C] + CO[C@H]1/C=C/O[C@@]2(C)Oc3c(C)c(O)c4c(O)c(c(/C=N/N5CCN(C)CC5)c(O)c4c3C2=O)NC(=O)/C(C)=C\C=C\[C@H](C)[C@H](O)[C@@H](C)[C@@H](O)[C@@H](C)[C@H](OC(C)=O)[C@@H]1C [Rifampicin]
fitness, S. pneumoniae D39V
Details	first compound 0.001075 µg/mL	first compound 0.002 µg/mL	first compound 0.00215 µg/mL	first compound 0.004 µg/mL	first compound 0.0043 µg/mL	first compound 0.008 µg/mL
partner 0.05 µg/mL	0.779	0.647	0.664	0.558	0.517	–
partner 0.1 µg/mL	0.458	0.289	0.307	0.308	0.288	0.288
partner 0.2 µg/mL	0.18	–	0.169	–	0.129	–

fitness, S. pneumoniae D39V, one replicate
Details	first compound 0.002 µg/mL	first compound 0.004 µg/mL	first compound 0.008 µg/mL
partner 0.025 µg/mL	0.804	0.698	0.492
partner 0.2 µg/mL	0	0	0

CO[C@@]12[C@H](COC(N)=O)C3=C(C(=O)C(C)=C(N)C3=O)N1C[C@@H]1N[C@@H]12 [Mitomycin C] + COc1cc(Cc2cnc(N)nc2N)cc(OC)c1OC [Trimethoprim]
fitness, S. aureus DSM 20231
Details	partner 0.125 µg/mL	partner 0.25 µg/mL	partner 0.5 µg/mL	partner 1 µg/mL
first compound 0.0156 µg/mL	0.6	0.506	0.0394	0.0198
first compound 0.0312 µg/mL	0.604	0.485	0.0541	0.0233
first compound 0.0625 µg/mL	0.491	0.279	0.0513	0.0116

CO[C@@]12[C@H](COC(N)=O)C3=C(C(=O)C(C)=C(N)C3=O)N1C[C@@H]1N[C@@H]12 [Mitomycin C] + O=C1CN(/N=C/c2ccc([N+](=O)[O-])o2)C(=O)N1 [Nitrofurantoin]
fitness, S. pneumoniae D39V
Details	first compound 0.001075 µg/mL	first compound 0.002 µg/mL	first compound 0.00215 µg/mL	first compound 0.004 µg/mL	first compound 0.0043 µg/mL	first compound 0.008 µg/mL
partner 1.285 µg/mL	–	0.896	–	0.74	–	0.588
partner 2 µg/mL	0.889	–	0.883	–	0.759	–
partner 2.57 µg/mL	–	0.839	–	0.765	–	0.535
partner 4 µg/mL	0.866	–	0.835	–	0.679	–
partner 8 µg/mL	0.803	–	0.755	–	0.554	–

S. pneumoniae D39V, partner 5.14 µg/mL, one replicate
Details	fitness
first compound 0.002 µg/mL	0.723
first compound 0.004 µg/mL	0.613
first compound 0.008 µg/mL	0.419
